How the values were obtained:
ALOMY [1] = assay: Pre-emergence action against ALOMY, 1280 g/ha; type: in vivo, Alopecurus myosuroides; details: visual scoring after about 3 weeks vs untreated controls, 100% = plants have died, 0% = like control plants
In short: (§1)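 Pre-emergence pot test: seeds in sandy loam, soil-covered, sprayed on soil surface (WP/EC, 0.5% additive, 600 L/ha water); greenhouse ~3 wk; visual % effect vs untreated, 0–100%.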

DIGSA [2] = assay: Pre-emergence action against DIGSA, 1280 g/ha; type: in vivo, Digitaria sanguinalis; details: visual scoring after about 3 weeks vs untreated controls, 100% = plants have died, 0% = like control plants
In short: as §1

ABUTH = assay: Pre-emergence action against ABUTH, 1280 g/ha; type: in vivo, Abutilon theophrasti; details: scored visually after about 3 weeks vs untreated controls (100% = plants have died)
In short: as §1

AVEFA = assay: Pre-emergence action at 320 g/ha against AVEFA; type: in vivo; details: visual scoring after about 3 weeks vs untreated controls
In short: (§2)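 Effect rated visually (% vs untreated control) about 3 weeks after pre-emergence spraying of WP/EC formulation onto soil; spray carried 0.5% additive at 600 l/ha water.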

VIOTR [3] = assay: Pre-emergence action at 320 g/ha against VIOTR; type: in vivo, Viola tricolor; details: dosage 320 g/ha
In short: as §2

LOLRI = assay: Post-emergence action against LOLRI, 1.28 kg/ha; type: in vivo, Lolium rigidum; details: dosage 1280 g/ha, visual rating about 3 weeks after treatment vs untreated controls
In short: (§3)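 Foliar application at the one-leaf stage: compound as WP or EC in water with 0.5% additive, sprayed at 600 L/ha. Plants are kept about 3 weeks in the greenhouse, then % herbicidal action is estimated visually (100% = death).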

SETVI = assay: Post-emergence action against SETVI, 1.28 kg/ha; type: in vivo, Setaria viridis; details: dosage 1280 g/ha, visual rating about 3 weeks after treatment vs untreated controls
In short: as §3

AMARE [4] = assay: Post-emergence action against AMARE, 1.28 kg/ha; type: in vivo, Amaranthus retroflexus; details: dosage 1280 g/ha, visual rating about 3 weeks after treatment vs untreated controls (100% = plants died)
In short: as §3

VERPE = assay: Post-emergence action against VERPE, 1.28 kg/ha; type: in vivo, Veronica persica; details: dosage 1280 g/ha, visual rating about 3 weeks after treatment vs untreated controls (100% = plants died)
In short: as §3

ALOMY [5] = assay: Post-emergence action against ALOMY, 320 g/ha; type: in vivo, Alopecurus myosuroides; details: dosage 320 g/ha, visual rating about 3 weeks after treatment vs untreated controls (100% = plants died)
In short: (§4)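 Greenhouse-grown plants sprayed post-emergence at the one-leaf stage, 2 to 3 weeks after sowing, with WP or EC formulations plus 0.5% additive at 600 l/ha water, at 320 g/ha. Activity rated visually after about 3 weeks versus untreated controls (100% = plants died, 0% = like control).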

DIGSA [6] = assay: Post-emergence action at 320 g/ha against DIGSA; type: in vivo, Digitaria sanguinalis; details: dosage 320 g/ha, visual rating about 3 weeks after treatment vs untreated controls (100% = plants died)
In short: as §4

ECHCG = assay: Post-emergence action at 320 g/ha against ECHCG; type: in vivo, Echinochloa crus-galli; details: dosage 320 g/ha, visual rating about 3 weeks after treatment vs untreated controls (100% = plants died)
In short: as §4

AMARE [7] = assay: Post-emergence action at 320 g/ha against AMARE; type: in vivo, Amaranthus retroflexus; details: visual rating about 3 weeks after treatment vs untreated controls
In short: as §4

PHBPU = assay: Post-emergence action at 320 g/ha against PHBPU; type: in vivo; details: visual rating about 3 weeks after treatment vs untreated controls
In short: as §4

POLCO = assay: Post-emergence action at 320 g/ha against POLCO; type: in vivo, Fallopia convolvulus (Polygonum convolvulus); details: visual rating about 3 weeks after treatment vs untreated controls
In short: as §4

VIOTR [8] = assay: Post-emergence action at 320 g/ha against VIOTR; type: in vivo, Viola tricolor; details: visual rating about 3 weeks after treatment vs untreated controls
In short: as §4

CCOC(=O)COc1nn(-c2ccccc2F)c(-c2cncc(F)c2)c1Br [VII-015]
90%: Pre-emergence action against ALOMY (ALOMY [1]) | Pre-emergence action against DIGSA (DIGSA [2]) | Pre-emergence action against ABUTH (ABUTH) | Pre-emergence action against AVEFA in % (AVEFA) | Post-emergence action against SETVI (SETVI) | Post-emergence action against AMARE (AMARE [4]) | Post-emergence action against ALOMY (ALOMY [5]) | Post-emergence action at 320 g/ha against ECHCG in % (ECHCG) | Post-emergence action against AMARE in % (AMARE [7]) | Post-emergence action against PHBPU in % (PHBPU) | Post-emergence action against VIOTR in % (VIOTR [8])
100%: Pre-emergence action against VIOTR in % (VIOTR [3]) | Post-emergence action against LOLRI (LOLRI) | Post-emergence action against VERPE (VERPE) | Post-emergence action at 320 g/ha against DIGSA in % (DIGSA [6]) | Post-emergence action against POLCO in % (POLCO)

COC(=O)CCOC(=O)COc1nn(-c2ccccc2F)c(-c2ccc(F)nc2)c1Br [VII-111]
80%: Post-emergence action against PHBPU in % (PHBPU)
100%: Pre-emergence action against ALOMY (ALOMY [1]) | Pre-emergence action against DIGSA (DIGSA [2]) | Pre-emergence action against VIOTR in % (VIOTR [3]) | Post-emergence action against SETVI (SETVI) | Post-emergence action against ALOMY (ALOMY [5])
90%: Pre-emergence action against ABUTH (ABUTH) | Pre-emergence action against AVEFA in % (AVEFA) | Post-emergence action against LOLRI (LOLRI) | Post-emergence action against AMARE (AMARE [4]) | Post-emergence action against VERPE (VERPE) | Post-emergence action at 320 g/ha against DIGSA in % (DIGSA [6]) | Post-emergence action at 320 g/ha against ECHCG in % (ECHCG) | Post-emergence action against AMARE in % (AMARE [7]) | Post-emergence action against POLCO in % (POLCO) | Post-emergence action against VIOTR in % (VIOTR [8])

COC(=O)COc1nn(-c2ccccc2F)c(-c2ccc(F)nc2)c1C(F)(F)F [VII-031]
90%: Pre-emergence action against ABUTH (ABUTH) | Post-emergence action against SETVI (SETVI) | Post-emergence action against AMARE (AMARE [4]) | Post-emergence action at 320 g/ha against ECHCG in % (ECHCG) | Post-emergence action against AMARE in % (AMARE [7]) | Post-emergence action against PHBPU in % (PHBPU) | Post-emergence action against POLCO in % (POLCO) | Post-emergence action against VIOTR in % (VIOTR [8])
100%: Pre-emergence action against ALOMY (ALOMY [1]) | Pre-emergence action against DIGSA (DIGSA [2]) | Pre-emergence action against AVEFA in % (AVEFA) | Pre-emergence action against VIOTR in % (VIOTR [3]) | Post-emergence action against LOLRI (LOLRI) | Post-emergence action against VERPE (VERPE) | Post-emergence action against ALOMY (ALOMY [5]) | Post-emergence action at 320 g/ha against DIGSA in % (DIGSA [6])

CCOC(=O)C(C)Oc1nn(-c2ccccc2F)c(-c2ccc(F)nc2)c1Br (stereo not shown) [VII-019]
90%: Pre-emergence action against ALOMY (ALOMY [1]) | Pre-emergence action against ABUTH (ABUTH) | Pre-emergence action against AVEFA in % (AVEFA) | Post-emergence action against SETVI (SETVI) | Post-emergence action against AMARE (AMARE [4]) | Post-emergence action against VERPE (VERPE) | Post-emergence action at 320 g/ha against DIGSA in % (DIGSA [6]) | Post-emergence action at 320 g/ha against ECHCG in % (ECHCG) | Post-emergence action against PHBPU in % (PHBPU) | Post-emergence action against POLCO in % (POLCO) | Post-emergence action against VIOTR in % (VIOTR [8])
100%: Pre-emergence action against DIGSA (DIGSA [2]) | Pre-emergence action against VIOTR in % (VIOTR [3]) | Post-emergence action against LOLRI (LOLRI) | Post-emergence action against ALOMY (ALOMY [5])
80%: Post-emergence action against AMARE in % (AMARE [7])
